{"source": "patent US8192962B2", "about": "“Processes for detecting toxic substances” (Daikin Industries, Ltd., priority 2001, dated 2012)", "test_system": "Transport facilitation protein genes", "experiment": "DNA chip mRNA expression in yeast, transport facilitation protein genes (Table 5)", "assay_type": "cell-based, Saccharomyces cerevisiae S288C", "summary_of_the_method": "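Whole-genome yeast DNA chip hybridization (65° C., >12 h) of Cy-labeled cDNA from S288C cells exposed 2 h at 25° C. to a sub-lethal toxicant dose in YPD; value is intensity relative to chemical-free control.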", "data": [{"smiles": "Oc1cc(Cl)c(Cl)cc1Cl", "note": "[(6), 2,4,5-trichlorophenol]", "values": [{"measurement": "The level of expressed mRNA in the presence of chemical substance/The level of expressed mRNA in the absence of chemical substance", "setting": "yeast gene YBL030C", "value": 1.1}, {"measurement": "The level of expressed mRNA in the presence of chemical substance/The level of expressed mRNA in the absence of chemical substance", "setting": "yeast gene YBL099W", "value": 0.9}, {"measurement": "The level of expressed mRNA in the presence of chemical substance/The level of expressed mRNA in the absence of chemical substance", "setting": "yeast gene YBR052C", "value": 2.1}, {"measurement": "The level of expressed mRNA in the presence of chemical substance/The level of expressed mRNA in the absence of chemical substance", "setting": "yeast gene YBR068C", "value": 1.9}, {"measurement": "The level of expressed mRNA in the presence of chemical substance/The level of expressed mRNA in the absence of chemical substance", "setting": "yeast gene YBR127C", "value": 1.1}, {"measurement": "The level of expressed mRNA in the presence of chemical substance/The level of expressed mRNA in the absence of chemical substance", "setting": "yeast gene YBR132C", "value": 1.2}, {"measurement": "The level of expressed mRNA in the presence of chemical substance/The level of expressed mRNA in the absence of chemical substance", "setting": "yeast gene YBR207W", "value": 1.6}, {"measurement": "The level of expressed mRNA in the presence of chemical substance/The level of expressed mRNA in the absence of chemical substance", "setting": "yeast gene YBR293W", "value": 0.9}, {"measurement": "The level of expressed mRNA in the presence of chemical substance/The level of expressed mRNA in the absence of chemical substance", "setting": "yeast gene YBR294W", "value": 1.2}, {"measurement": "The level of expressed mRNA in the presence of chemical substance/The level of expressed mRNA in the absence of chemical substance", "setting": "yeast gene YBR298C", "value": 0.4}, {"measurement": "The level of expressed mRNA in the presence of chemical substance/The level of expressed mRNA in the absence of chemical substance", "setting": "yeast gene YCL025C", "value": 0.9}, {"measurement": "The level of expressed mRNA in the presence of chemical substance/The level of expressed mRNA in the absence of chemical substance", "setting": "yeast gene YCL038C", "value": 3.2}, {"measurement": "The level of expressed mRNA in the presence of chemical substance/The level of expressed mRNA in the absence of chemical substance", "setting": "yeast gene YCR024C-A", "value": 1.2}, {"measurement": "The level of expressed mRNA in the presence of chemical substance/The level of expressed mRNA in the absence of chemical substance", "setting": "yeast gene YCR037C", "value": 1.8}, {"measurement": "The level of expressed mRNA in the presence of chemical substance/The level of expressed mRNA in the absence of chemical substance", "setting": "yeast gene YCR098C", "value": 1.6}, {"measurement": "The level of expressed mRNA in the presence of chemical substance/The level of expressed mRNA in the absence of chemical substance", "setting": "yeast gene YDL128W", "value": 2.3}, {"measurement": "The level of expressed mRNA in the presence of chemical substance/The level of expressed mRNA in the absence of chemical substance", "setting": "yeast gene YDL198C", "value": 0.8}, {"measurement": "The level of expressed mRNA in the presence of chemical substance/The level of expressed mRNA in the absence of chemical substance", "setting": "yeast gene YDL210W", "value": 1.3}, {"measurement": "The level of expressed mRNA in the presence of chemical substance/The level of expressed mRNA in the absence of chemical substance", "setting": "yeast gene YDL245C", "value": 1.1}, {"measurement": "The level of expressed mRNA in the presence of chemical substance/The level of expressed mRNA in the absence of chemical substance", "setting": "yeast gene YDR038C", "value": 1.8}, {"measurement": "The level of expressed mRNA in the presence of chemical substance/The level of expressed mRNA in the absence of chemical substance", "setting": "yeast gene YDR039C", "value": 1.1}, {"measurement": "The level of expressed mRNA in the presence of chemical substance/The level of expressed mRNA in the absence of chemical substance", "setting": "yeast gene YDR086C", "value": 0.8}, {"measurement": "The level of expressed mRNA in the presence of chemical substance/The level of expressed mRNA in the absence of chemical substance", "setting": "yeast gene YDR270W", "value": 2.2}, {"measurement": "The level of expressed mRNA in the presence of chemical substance/The level of expressed mRNA in the absence of chemical substance", "setting": "yeast gene YDR298C", "value": 1.2}, {"measurement": "The level of expressed mRNA in the presence of chemical substance/The level of expressed mRNA in the absence of chemical substance", "setting": "yeast gene YDR342C", "value": 1.1}, {"measurement": "The level of expressed mRNA in the presence of chemical substance/The level of expressed mRNA in the absence of chemical substance", "setting": "yeast gene YDR343C", "value": 1.3}, {"measurement": "The level of expressed mRNA in the presence of chemical substance/The level of expressed mRNA in the absence of chemical substance", "setting": "yeast gene YDR345C", "value": 1.2}, {"measurement": "The level of expressed mRNA in the presence of chemical substance/The level of expressed mRNA in the absence of chemical substance", "setting": "yeast gene YDR387C", "value": 1.2}, {"measurement": "The level of expressed mRNA in the presence of chemical substance/The level of expressed mRNA in the absence of chemical substance", "setting": "yeast gene YDR497C", "value": 0.6}, {"measurement": "The level of expressed mRNA in the presence of chemical substance/The level of expressed mRNA in the absence of chemical substance", "setting": "yeast gene YEL027W", "value": 1.1}, {"measurement": "The level of expressed mRNA in the presence of chemical substance/The level of expressed mRNA in the absence of chemical substance", "setting": "yeast gene YEL063C", "value": 1.3}, {"measurement": "The level of expressed mRNA in the presence of chemical substance/The level of expressed mRNA in the absence of chemical substance", "setting": "yeast gene YEL065W", "value": 2.3}, {"measurement": "The level of expressed mRNA in the presence of chemical substance/The level of expressed mRNA in the absence of chemical substance", "setting": "yeast gene YER053C", "value": 2.8}, {"measurement": "The level of expressed mRNA in the presence of chemical substance/The level of expressed mRNA in the absence of chemical substance", "setting": "yeast gene YER119C", "value": 1.3}, {"measurement": "The level of expressed mRNA in the presence of chemical substance/The level of expressed mRNA in the absence of chemical substance", "setting": "yeast gene YFL011W", "value": 1.0}, {"measurement": "The level of expressed mRNA in the presence of chemical substance/The level of expressed mRNA in the absence of chemical substance", "setting": "yeast gene YFL041W", "value": 2.0}, {"measurement": "The level of expressed mRNA in the presence of chemical substance/The level of expressed mRNA in the absence of chemical substance", "setting": "yeast gene YFL050C", "value": 0.9}, {"measurement": "The level of expressed mRNA in the presence of chemical substance/The level of expressed mRNA in the absence of chemical substance", "setting": "yeast gene YFL054C", "value": 2.4}, {"measurement": "The level of expressed mRNA in the presence of chemical substance/The level of expressed mRNA in the absence of chemical substance", "setting": "yeast gene YFL055W", "value": 1.1}, {"measurement": "The level of expressed mRNA in the presence of chemical substance/The level of expressed mRNA in the absence of chemical substance", "setting": "yeast gene YGL006W", "value": 1.0}, {"measurement": "The level of expressed mRNA in the presence of chemical substance/The level of expressed mRNA in the absence of chemical substance", "setting": "yeast gene YGL008C", "value": 1.9}, {"measurement": "The level of expressed mRNA in the presence of chemical substance/The level of expressed mRNA in the absence of chemical substance", "setting": "yeast gene YGL104C", "value": 2.1}, {"measurement": "The level of expressed mRNA in the presence of chemical substance/The level of expressed mRNA in the absence of chemical substance", "setting": "yeast gene YGL167C", "value": 2.0}, {"measurement": "The level of expressed mRNA in the presence of chemical substance/The level of expressed mRNA in the absence of chemical substance", "setting": "yeast gene YGL255W", "value": 1.1}, {"measurement": "The level of expressed mRNA in the presence of chemical substance/The level of expressed mRNA in the absence of chemical substance", "setting": "yeast gene YGR055W", "value": 1.1}, {"measurement": "The level of expressed mRNA in the presence of chemical substance/The level of expressed mRNA in the absence of chemical substance", "setting": "yeast gene YGR065C", "value": 2.4}, {"measurement": "The level of expressed mRNA in the presence of chemical substance/The level of expressed mRNA in the absence of chemical substance", "setting": "yeast gene YGR082W", "value": 1.1}, {"measurement": "The level of expressed mRNA in the presence of chemical substance/The level of expressed mRNA in the absence of chemical substance", "setting": "yeast gene YGR096W", "value": 1.7}, {"measurement": "The level of expressed mRNA in the presence of chemical substance/The level of expressed mRNA in the absence of chemical substance", "setting": "yeast gene YGR138C", "value": 0.8}, {"measurement": "The level of expressed mRNA in the presence of chemical substance/The level of expressed mRNA in the absence of chemical substance", "setting": "yeast gene YGR191W", "value": 1.1}, {"measurement": "The level of expressed mRNA in the presence of chemical substance/The level of expressed mRNA in the absence of chemical substance", "setting": "yeast gene YGR197C", "value": 0.5}, {"measurement": "The level of expressed mRNA in the presence of chemical substance/The level of expressed mRNA in the absence of chemical substance", "setting": "yeast gene YGR224W", "value": 0.8}, {"measurement": "The level of expressed mRNA in the presence of chemical substance/The level of expressed mRNA in the absence of chemical substance", "setting": "yeast gene YGR260W", "value": 0.9}]}]}
